{"source": "patent US4207325A", "about": "“4-Substituted pyrazoles” (Bayer Aktiengesellschaft, priority 1975, dated 1980)", "test_system": "venous thrombs (left jugular vein of rats)", "test": "antithrombotic action in rats: thromb formation in the supercooled left jugular vein, thromb isolated and weighed 4 hours later", "type": "in vivo", "conditions": "10 mg/kg, administered orally", "procedure": "The left jugular vein of rats weighing 170 to 180 g was exposed under ether narcosis and supercooled to -12° C. for 2 minutes to stimulate thromb formation. The thromb was isolated from the vein 4 hours later, and was weighed. The test animals were given the test preparation in tragacanth mucilage immediately before supercooling the wall of the blood vessel. As a result, the protective antithrombotic activity was tested in the first 4 hours after stimulating thromb formation."}
{"smiles": "Cc1nn(C(C)c2ccc(Cl)c(Cl)c2)c(OC(=O)c2ccc(F)cc2)c1-c1ccccc1", "note": "(stereo not drawn) [Example 1, 5-(4-Fluorobenzoyloxy)-3-methyl-phenyl-1-(α-methyl-3,4-dichlorobenzyl)-pyrazole]", "values": [{"measurement": "Inhibition in % (reduction of thromb size)", "setting": "4 hour period of action, vs control without active compound", "value": 56, "unit": "%"}, {"measurement": "Thromb size, mean value", "setting": "4 hours, 12 experiments, control 115 ± 12 (14 experiments)", "value": "51 ± 10", "unit": "µg"}]}
